The text below walks through data of patent US10030103B2, “Stable helical ionic polypeptides” (The Board of Trustees of the University of Illinois, priority 2010, dated 2018).

The nature of data set [1]: Circular dichroism (CD) analysis of polypeptide conformation in aqueous solution. It counts as physicochemical. On the technique in general: CD spectra are sensitive to the conformation of chiral molecules.
Experimental: CD measurements were carried out on a JASCO J-700 CD spectrometer in a quartz disc with a light path length of 1 cm at 0.01-0.1 mg/mL in DI water at room temperature or under conditions otherwise indicated.
The CD study was performed on a JASCO J-700 or on a J-720 CD spectrometer. Polymer samples were prepared at concentrations of 0.01-0.1 mg/mL at pH 3 unless otherwise specified. The solution was placed in a quartz cell with light path of 0.2 cm. The mean residue molar ellipticity of each polymer was calculated based on the measured apparent ellipticity, the molar concentration of polymer and the m.w. of the repeating unit. The CD experiments were carried out at room temperature unless otherwise specified. For temperature-dependency study, the temperature of the sample chamber which hosts the quartz cell was controlled by a water bath (from 4° C. to 70° C.).
The samples were equilibrated at corresponding temperature for at least 10 min before the CD measurements. For the sample preparations, the polymers were dissolved in DI water or in a solution containing NaCl, urea or methanesulfonic acid (MSA). For the pH-dependency study, the pH of the polymer solution was tuned by the addition of a concentrated HCl or NaOH solution.
The CD study was performed on a JASCO J-700 and J-720 CD spectrometer. Polymer samples were prepared at a concentration of 0.05 mg/mL in general unless otherwise specified. The solution was placed in a quartz disc with light path of 0.5 cm. Mean residue molar ellipticity was calculated based on the ellipticity obtained, concentration of polymer and the molar weight of the repeating unit.
The CD study was performed on a JASCO J-700 and J-720 CD spectrometer. The polymer samples were prepared at concentrations of 0.01-0.1 mg/mL in general unless otherwise specified. The solution was placed in a quartz cell with a path length of 0.5 cm. […] For the helix-temperature dependency study, the temperature of the sample chamber where the quartz cell was placed was controlled by a water bath (from 4° C. to 70° C.). […]
Data set [2] relates to COS-7 cells. The experiment in a line: In vitro transfection of COS-7 cells with polymer/DNA complexes (pCMV-Luc, luciferase expression). The note with it: listed as PVBLG40-1. Format: cell-based. As to the method: DNA/polymer complexes were prepared at room temperature by dissolving DNA (0.35 μg) in 150 mM NaCl, 20 mM HEPES (175 μL). An equal volume of 25-kDa branched PEI, lipofectamine 2000 or PVBLGn-X in 150 mM NaCl, 20 mM HEPES was added to achieve the desired weight ratio. The final complexes were incubated at room temperature for 15 min before further use. […] The transfection medium was replaced with fresh serum-supplemented growth medium 4 h post-transfection.
Luciferase expression was quantified 24 h post-transfection using the Promega Bright-Glo luciferase assay system (Promega, Madison, Wis.). Luciferase activity was measured in relative light units (RLU) using a PerkinElmer plate reader with luminescence capabilities (Waltham, Mass.). Results were normalized to total cell protein using the Pierce BCA protein assay kit (Rockford, Ill.). Transfections were performed in triplicate.

Data set [3] deals with DHSα E. coli. Put plainly: Inhibition of bacterial growth in Luria broth (OD650). Format: cell-based. The note with it: up to 100 μg/mL, seven hours, 37° C. As to the method:
Luria broth (1×) was prepared containing known concentrations of the three polymers between 0 μg/mL and 100 μg/mL and dispensed (200 μL aliquots) in triplicate into the wells of a clear polystyrene 96-well plate. Separate wells containing the antibiotic kanamycin at 50 μg/mL were also prepared as a control. The wells were then inoculated with DHSα E. coli and left to grow at 37° C. with agitation. After seven hours, the plate was removed and the absorbance of 650 nm light was measured for each well (OD650). In general, as bacterial growth was inhibited, the resulting OD650 decreased. The average OD650 was then plotted for each sample (FIG. 50).

Turning to “Poly(γ-(4-aminoethylthiopropoxyl)-benzyl-L-glutamate) [(PAOBLG-AET)10]”, the “pH dependence of −[θ]222 / helical conformation” value in data set [1] (pH range as stated in the value) is recorded as “remained unchanged when the solution's pH was increased from 1 to 8”. On to poly(L-lysine) [PLL75], for which the “conformation by CD” value in data set [1] (aqueous solution, pH 1) is “completely random coil conformation”.

In the case of “poly(γ-(4-(1-hexanol-6-aminomethyl))benzyl-L-glutamate) [(PVBLG-1)40]”, the “transfection efficiency” value in data set [2] was “on par with 25-kDa branched polyethylenimine (PEI)”.

Regarding “poly(γ-(4-(1-hexanol-6-aminomethyl))benzyl-L-glutamate) [PVBLG-1]”, the antimicrobial properties entry in data set [3] is “Neither PVBLGn-1 nor PVBLGn-8 displayed antimicrobial properties”.

For the substance poly-L-lysine [(PLL)60], the Helical content in data set [1] (Table 9-2, (−[θ]222 + 3000)/39,000) turned out to be 0%.
